{"source": "patent US20240288345A1", "about": "“FLUORESCENT STAINING METHOD” (OSAKA UNIVERSITY, priority 2022, published 2024)", "key": {"[1]": {"tested_on": "goblet cell mucus of human colorectal mucosal tissue", "assay": "Fluorescent staining of frozen sliced specimen of human colonic mucosa (Test Example A)", "procedure": "A tissue to be stained was washed with phosphate buffered saline (PBS), was immersed in 30% (w/v) of sucrose in the PBS, and was frozen in O.C.T. COMPOUND (45833, Sakura Finetek) at −80° ° C. overnight. The frozen tissue was cut into a thickness of 10 μm with a cryostat (CM3050 S, Leica Biosystems). The resultant frozen section was washed with PBS three times, and was subjected to pretreatment with a 0.5% solution of periodic acid (HIOA) (86171, MUTO PURE CHEMICALS CO., LTD.) at room temperature for 30 minutes. The section was washed with PBS three times, and was incubated in FAM hydrazide, 5-isomer((50 µM, 24170, BroadPharm, in this description, sometimes referred to as “FAM hydrazide”), Alexa Fluor 488 hydrazide (50 μM, A10436, ThermoFisher Scientific, Inc.), BDP FL hydrazide (50 μM, 11470, Lumiprobe Corporation), or fluorescein (50 µM, FUJIFILM Wako Pure Chemical Corporation) diluted with PBS at room temperature overnight. After that, the section was washed with PBS and an image thereof was obtained with a confocal microscope.\nA section of a human colorectal mucosal tissue sampled from the non-tumor region of a surgical specimen of colorectal cancer was subjected to fluorescent staining through use of FAM hydrazide, Alexa Fluor 488 hydrazide, BDP FL hydrazide, or fluorescein serving as a fluorescent skeleton as a stain."}, "[2]": {"tested_on": "human colonic mucosal tissue", "assay": "Clearing and whole-mount 3D fluorescent staining of human colonic mucosal tissue (Test Example B)", "procedure": "CUBIC-L and CUBIC-R+reagents (T3740 and T3741, Tokyo Chemical Industry Co., Ltd.) were used in tissue clearing. Atissue removal procedure is simply described below.\nA formaldehyde-fixed tissue specimen was washed with PBS, and was subsequently immersed in a 50% (v/v) CUBIC-L reagent (mixture containing water and the CUBIC-L reagent at 1:1) overnight. Further, the specimen was immersed in the CUBIC-L reagent at 37° C. for 5 days or 6 days while being gently shaken. Next, each of those specimens was washed with PBS, was immersed in 30% (w/v) of sucrose in the PBS, and was frozen in O.C.T. COMPOUND at −80° C. overnight. […] After having been washed with PBS, the specimen was stained by being gently shaken at room temperature for 2 days or 3 days together with FAM hydrazide, 5-isomer (50 μM), Compound 1 (50 μM), Alexa Fluor 488 hydrazide (50 µM), BDP FL hydrazide ([…]), or fluorescein (50 µM) in PBS containing 0.5% (v/v) of Triton X-100 (12967, Nacalai Tesque, Inc.). When nuclear counterstaining was performed, propidium iodide (PI) (10 μg/mb, P21493, Life Technologies Corporation) or RedDot-2 (1:100, 40061-T, Biotium, Inc.) was also added to the staining solution. After the staining step, the specimen was washed with PBS, and was immersed in a 50% (v/v) CUBIC-R+reagent (mixture containing water and the CUBIC-R+reagent at 1:1) overnight. Further, the specimen was immersed in the CUBIC-R+reagent for 1 day or 2 days while being gently shaken. A cleared tissue specimen thus obtained was subjected to 3D imaging with a confocal fluorescence microscope or a light-sheet fluorescence microscope. A wavelength of 488 nm was applied as the excitation wavelength of each of FAM hydrazide, Compound 1, Alexa Fluor 488 hydrazide, BDP FL hydrazide, and fluorescein, and the fluorescence detection wavelength range of each of these materials was from 490 nm to 562 nm.\nA 3D image was obtained by using a confocal microscope (Zeiss LSM880 Confocal/Multiphoton, Carl Zeiss AG) or a light-sheet fluorescence microscope (Zeiss Lightsheet 7, Carl Zeiss AG), All pieces of raw image data were reconstructed and analyzed with Imaris software (version 9.2.1, Bitplane Inc.).\nA human colonic mucosal tissue after its formalin fixation, which had been excised into a square about 4 mm on a side, was subjected to clearing treatment and to whole-mount 3D tissue staining through use of FAM hydrazide, Alexa Fluor 488 hydrazide, BDP FL hydrazide, or fluorescein as a stain."}, "[3]": {"tested_on": "neutrophil in colonic tissue analyte", "assay": "Whole-mount 3D staining of ulcerative colitis colonic tissue analyte (Test Example C)", "set-up": "species or system human", "conditions": "cleared", "procedure": "(§1) A formaldehyde-fixed tissue specimen was washed with PBS, and was subsequently immersed in a 50% (v/v) CUBIC-L reagent (mixture containing water and the CUBIC-L reagent at 1:1) overnight. Further, the specimen was immersed in the CUBIC-L reagent at 37° C. for 5 days or 6 days while being gently shaken. Next, each of those specimens was washed with PBS, was immersed in 30% (w/v) of sucrose in the PBS, and was frozen in O.C.T. COMPOUND at −80° C. overnight. Next, the frozen specimen was thawed, was washed with PBS, and was immersed in a 0.5% solution of periodic acid (HIO;) (86171, MUTO PURE CHEMICALS CO., LTD.) at room temperature for 30 minutes. […] A cleared tissue specimen thus obtained was subjected to 3D imaging with a confocal fluorescence microscope or a light-sheet fluorescence microscope. A wavelength of 488 nm was applied as the excitation wavelength of each of FAM hydrazide, Compound 1, Alexa Fluor 488 hydrazide, BDP FL hydrazide, and fluorescein, and the fluorescence detection wavelength range of each of these materials was from 490 nm to 562 nm. […]"}, "[4]": {"tested_on": "colonic tissue analyte, crypt structure and neutrophils", "assay": "3D imaging of ulcerative colitis histopathological analyte (Test Example D)", "set-up": "species or system human", "conditions": "cleared, whole-mount 3D staining", "procedure": "as §1"}, "human colonic polyp": {"tested_on": "human colonic polyp", "assay": "3D imaging of human colonic polyp with light-sheet microscope (Test Example G)", "conditions": "with propidium iodide counterstain", "procedure": "as §1"}, "[5]": {"tested_on": "fungal hyphae in a pulmonary aspergillosis tissue", "assay": "3D imaging of fungal hyphae (Test Example H)", "conditions": "with RedDot 2 counterstain, confocal microscope", "procedure": "as §1"}}, "data": [{"smiles": "NNC(=O)c1ccc2c(c1)C(=O)OC21c2ccc(O)cc2Oc2cc(O)ccc21", "note": "[FAM hydrazide, FAM hydrazide, 5-isomer]", "values": [{"measurement": "Fluorescent staining signal in goblet cell mucus, sliced section", "setting": "[1]; 10 μm frozen section, 0.5% periodic acid pretreatment, 50 μM overnight", "result": "clear positive image"}, {"measurement": "Fluorescent staining signal without oxidation treatment with HIO4, sliced section", "setting": "[1]; no HIO4 oxidation", "result": "not obtained"}, {"measurement": "3D imaging signal of cleared tissue", "setting": "[2]; CUBIC clearing, periodic acid, 50 μM, 2-3 days, excitation 488 nm", "result": "clear stereoscopic image"}, {"measurement": "Staining of goblet cell and basement membrane in crypt of colonic mucosa", "setting": "[2]; cleared tissue, 3D staining", "result": "clearly stained"}, {"measurement": "Staining of neutrophil in 3D tissue staining", "setting": "[2]; cleared tissue, confirmed with anti-MPO antibody", "result": "clearly stained"}, {"measurement": "3D staining signal without oxidation treatment with HIO4", "setting": "[2]; no HIO4 oxidation, CUBIC reagent", "result": "no positive signal was observed"}, {"measurement": "Staining property for a sample having a thickness after clearing treatment", "setting": "[2]; summary of Examples and Test Examples", "result": "significantly excellent"}, {"measurement": "Stained image of neutrophil in 3D imaging", "setting": "[3]", "result": "clear stained image"}, {"measurement": "Three-dimensional observation of pathological crypt structure of ulcerative colitis", "setting": "[4]", "result": "enabled the three-dimensional observation"}, {"measurement": "Observation of surface layer structure of human colonic polyp", "setting": "human colonic polyp", "result": "able to be observed"}, {"measurement": "Visualization of structures of fungal hyphae", "setting": "[5]", "result": "clearly visualized"}]}]}
